{
  "source": "patent US9145386B2",
  "about": "“SOD-imitating metal complexes” (UNIVERSITAT DE VALENCIA, priority 2009, dated 2015)",
  "key": {"[1]": {"assay": "Potentiometric determination of protonation constants", "format": "physicochemical", "conditions": "NaClO4 0.15 mol·dm^−3, 298.1±0.1 K; for logarithm of protonation constant, L + H = HL: standard deviation of last figure in brackets", "description": "(§1) Potentiometric measurements were performed to determine the acid-base behaviour of the new family of compounds, yielding the overall protonation constants required for the subsequent study on the formation of metal complexes with Cu(II), Fe(II) and Mn(II).\nThe numbers in brackets indicate the standard deviation of the last significant figure. ^a) The overall basicity constant is β=ΣKHjL"}, "[2]": {"assay": "Stability constants for the formation of metal complexes with Mn2+ (potentiometry)", "format": "physicochemical", "description": "as §1\nThe evaporation was in fact carried out in flasks, in contact with atmospheric oxygen."}},
  "data": [
    {"smiles": "c1cc2nc(c1)CNCCN(CCNCc1ccnc3ccccc13)CCNC2", "note": "[Compound 1]", "values": [
      {"measurement": "Log β (overall basicity constant)", "setting": "[1]", "result": "27.00(1)"},
      {"measurement": "logarithm of protonation constant, H2L + H = H3L", "setting": "[1]", "result": "5.94(1)"},
      {"measurement": "logarithm of protonation constant, H3L + H = H4L", "setting": "[1]", "result": "2.82(1)"},
      {"measurement": "logarithm of protonation constant, HL + H = H2L", "setting": "[1]", "result": "8.31(1)"},
      {"measurement": "logarithm of protonation constant, L + H = HL", "setting": "[1]", "result": "9.93(1)"},
      {"measurement": "stability constant (log K), Mn + L = MnL", "setting": "[2]", "result": "8.91(1)"},
      {"measurement": "stability constant, Mn + L + H2O = MnL(OH) + H^+", "setting": "[2]", "result": "−1.36(1)"},
      {"measurement": "stability constant, MnL + OH = MnL(OH)", "setting": "[2]", "result": "3.45(1)"}
    ]},
    {"smiles": "c1cc2nc(c1)CNCCN(CCNCc1ccc3ccccc3n1)CCNC2", "note": "[Compound 2]", "values": [
      {"measurement": "Log β (overall basicity constant)", "setting": "[1]", "result": "24.66(2)"},
      {"measurement": "logarithm of protonation constant, H2L + H = H3L", "setting": "[1]", "result": "6.23(1)"},
      {"measurement": "logarithm of protonation constant, HL + H = H2L", "setting": "[1]", "result": "8.40(1)"},
      {"measurement": "logarithm of protonation constant, L + H = HL", "setting": "[1]", "result": "10.03(1)"},
      {"measurement": "stability constant (log K), Mn + L = MnL", "setting": "[2]", "result": "11.08(1)"},
      {"measurement": "stability constant, Mn + L + H = HMnL", "setting": "[2]", "result": "16.23(6)"},
      {"measurement": "stability constant, MnL + H = HMnL", "setting": "[2]", "result": "5.15(2)"}
    ]}
  ]
}
